Test results reported in ChEMBL document CHEMBL1201862, “PubChem BioAssay data set” (2004).
Active and inactive are the calls of the source.

Key:
[1] = molecular target: G-protein coupled receptor 55 (Homo sapiens, UniProt Q9Y2T6); assay: blockers of GPR55 signalling, imaged – imaging, image-based, counter-screen for GPR35 antagonist project, SAR follow-up (AID 2397); type: functional
[2] = molecular target: Sphingosine 1-phosphate receptor 1 (Homo sapiens, UniProt P21453); assay: Late stage counterscreen assay for S1P4 antagonists: Fluorescence dose response cell-based screening assay for antagonists of the Sphingosine 1-Phosphate Receptor 1 (S1P1). [Related pubchem assays (depositor defined):AID1510, AID1524, AID1692, AID1853, AID2332, AID489009, AID489017]; type: functional
[3] = molecular target: Sphingosine 1-phosphate receptor 5 (Homo sapiens, UniProt Q9H228); assay: Late stage counterscreen assay for S1P4 antagonists: Fluorescence dose response cell-based screening assay for antagonists of the Sphingosine 1-Phosphate Receptor 5 (S1P5). [Related pubchem assays (depositor defined):AID1510, AID1524, AID1692, AID1853, AID2332, AID489009, AID489017]; type: functional
[4] = molecular target: Sphingosine 1-phosphate receptor 2 (Homo sapiens, UniProt O95136); assay: Late stage counterscreen assay for S1P4 antagonists: Fluorescence dose response cell-based screening assay for antagonists of the Sphingosine 1-Phosphate Receptor 2 (S1P2). [Related pubchem assays (depositor defined):AID1510, AID1524, AID1692, AID1853, AID2332, AID489009, AID489017]; type: functional
[5] = molecular target: Sphingosine 1-phosphate receptor 3 (Homo sapiens, UniProt Q99500); assay: Late stage counterscreen assay for S1P4 antagonists: Fluorescence dose response cell-based screening assay for antagonists of the Sphingosine 1-Phosphate Receptor 3 (S1P3). [Related pubchem assays (depositor defined):AID1510, AID1524, AID1692, AID1853, AID2332, AID489009, AID489017]; type: functional
[6] = T. cruzi infection blockers in NIH3T3 cells – beta-gal luminescence, NIH3T3 host cells, confirmation (AID 2630); type: functional, cell-based; details: Mus musculus
[7] = Luminescence Cell-Based/Microorganism Confirmation at Dose of Inhibitors of Trypanosoma cruzi Infection. [Related pubchem assays: 1885, 1968 ]; type: functional
[8] = Luminescence Cell-Based Secondary HTS screen to identify cytotoxic compounds of NIH3T3 cells. [Related pubchem assays: 1885, 1968 ]; type: functional
SUMO E1/E2 = SUMO E1/E2 (Homo sapiens, UniProt P63279+Q9UBE0+Q9UBT2); assay: SAR analysis of SUMOylation using HTRF in an in-Vitro dose response assay. [Related pubchem assays (depositor defined):AID2006, AID2011, AID2018, AID2069, AID2658]; type: functional
Interleukin-8 [9] = molecular target: T1, Interleukin-8 (Homo sapiens, UniProt P10145); assay: SAR analysis of GM-Tri-DAP induced IL-8 secretion in MCF-7/NOD1 cells - Set 2. [Related pubchem assays (depositor defined):AID1575, AID1578, AID2333]; type: functional, cell-based
T1 sequence (P10145 whole entry): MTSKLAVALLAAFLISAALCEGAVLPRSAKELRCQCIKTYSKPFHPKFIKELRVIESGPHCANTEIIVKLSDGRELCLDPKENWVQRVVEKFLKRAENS

Tumor necrosis factor = Tumor necrosis factor (Homo sapiens, UniProt P01375); assay: analog potency on TNFa NF-kB signaling – cell-based, set 3, SAR follow-up (AID 2801); type: functional
[10] = reduction of Shn3 3'UTR-driven luciferase in osteoblasts – cell-based, Clone20 osteoblasts, firefly luciferase, cherry-picked, dose response (AID 624132); type: functional;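 also: firefly luciferase luminescence from reporter carrying the Shn3 3'UTR in osteoblasts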
[11] = molecular target: T2, Nucleotide-binding oligomerization domain-containing protein 2 (Homo sapiens, UniProt Q9HC29); assay: inhibition of MDP-driven NOD2 NF-kB reporter – cell-based, set 3, SAR follow-up (AID 2799); type: functional
[12] = molecular target: T3, Nucleotide-binding oligomerization domain-containing protein 1 (Homo sapiens, UniProt Q9Y239); assay: SAR analysis of NF-kappaB dependent luciferase using DAP as an inducer - Set 2. [Related pubchem assays (depositor defined):AID1566, AID1575, AID1578, AID1579, AID1849, AID1852, AID2264]; type: functional
T3 sequence (Q9Y239 whole entry): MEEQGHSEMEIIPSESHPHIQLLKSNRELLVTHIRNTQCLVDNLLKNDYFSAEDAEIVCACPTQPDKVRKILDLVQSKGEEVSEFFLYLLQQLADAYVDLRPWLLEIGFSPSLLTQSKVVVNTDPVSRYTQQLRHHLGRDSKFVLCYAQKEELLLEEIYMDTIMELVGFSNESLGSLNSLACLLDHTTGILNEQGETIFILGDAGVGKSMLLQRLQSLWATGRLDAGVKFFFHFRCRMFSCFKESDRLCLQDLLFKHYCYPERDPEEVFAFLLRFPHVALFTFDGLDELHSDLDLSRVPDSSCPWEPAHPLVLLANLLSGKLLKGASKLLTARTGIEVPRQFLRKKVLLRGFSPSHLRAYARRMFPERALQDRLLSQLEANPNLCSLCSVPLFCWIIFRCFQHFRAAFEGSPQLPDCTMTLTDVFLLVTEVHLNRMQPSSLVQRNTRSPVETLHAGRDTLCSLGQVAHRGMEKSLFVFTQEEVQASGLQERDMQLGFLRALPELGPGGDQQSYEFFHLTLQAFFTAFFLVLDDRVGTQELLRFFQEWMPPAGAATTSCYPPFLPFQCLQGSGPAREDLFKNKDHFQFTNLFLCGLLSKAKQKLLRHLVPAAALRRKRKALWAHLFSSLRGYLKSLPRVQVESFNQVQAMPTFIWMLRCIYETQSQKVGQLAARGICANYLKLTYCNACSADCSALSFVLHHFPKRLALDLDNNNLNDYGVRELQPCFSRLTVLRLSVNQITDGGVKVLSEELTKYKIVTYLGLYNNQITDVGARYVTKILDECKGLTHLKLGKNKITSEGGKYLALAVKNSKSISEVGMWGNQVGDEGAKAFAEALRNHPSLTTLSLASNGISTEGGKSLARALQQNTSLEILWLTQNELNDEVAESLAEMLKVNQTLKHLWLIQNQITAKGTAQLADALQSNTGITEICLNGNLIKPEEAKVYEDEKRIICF

[13] = molecular target: T3, Nucleotide-binding oligomerization domain-containing protein 1; assay: SAR analysis of compounds that inhibit NOD1 - Set 2. [Related pubchem assays (depositor defined):AID1566, AID1575, AID1578, AID1849, AID1852, AID2333, AID2335, AID2798]; type: functional
HEK293 [14] = assay: SAR analysis of compounds that are cytotoxic to HEK293 - Set 3. [Related pubchem assays (depositor defined):AID1575, AID1578, AID1848, AID1849, AID2001, AID2333, AID2334, AID2335, AID2337, AID2469]; type: functional, cell-based; details: Homo sapiens
[15] = loss of viability in HepG2 cells – cell-based, CellTiter-Glo, cherry-picked, cytotoxicity control for Shn3 inhibitor project, dose response (AID 624134); type: functional
[16] = molecular target: T2, Nucleotide-binding oligomerization domain-containing protein 2; assay: inhibition of NOD2 signaling – set 2, SAR follow-up (AID 2475); type: functional
[17] = non-specific 3'UTR reporter inhibition in Clone20-Shn3RL – cell-based, Renilla luciferase, cherry-picked, counter-screen for Shn3 inhibitor project, dose response (AID 624133); type: functional
HEK293 [18] = assay: SAR analysis of compounds that are cytotoxic to HEK293 - Set 2. [Related pubchem assays (depositor defined):AID1575, AID1578, AID1849, AID2001, AID2333, AID2334, AID2335, AID2337, AID2800]; type: functional, cell-based; details: Homo sapiens
[19] = molecular target: T3, Nucleotide-binding oligomerization domain-containing protein 1; assay: SAR analysis of compounds that inhibit NOD1 - Set 3. [Related pubchem assays (depositor defined):AID1566, AID1575, AID1578, AID1849, AID1852, AID2333, AID2335, AID2466]; type: functional
Interleukin-8 [20] = molecular target: T1, Interleukin-8; assay: SAR analysis of Tumor necrosis factor alpha (TNF-alpha) induced IL-8 secretion in MCF-7/NOD1 cells - Set 2. [Related pubchem assays (depositor defined):AID1575, AID2250, AID2260]; type: functional, cell-based
[21] = molecular target: T4, Tyrosine-protein phosphatase non-receptor type 7 (Homo sapiens, UniProt P35236); assay: redox-active compounds inhibiting HePTP phosphatase – biochemical, fluorescence, mechanism study (AID 2068); type: functional
T4 sequence (P35236 whole entry): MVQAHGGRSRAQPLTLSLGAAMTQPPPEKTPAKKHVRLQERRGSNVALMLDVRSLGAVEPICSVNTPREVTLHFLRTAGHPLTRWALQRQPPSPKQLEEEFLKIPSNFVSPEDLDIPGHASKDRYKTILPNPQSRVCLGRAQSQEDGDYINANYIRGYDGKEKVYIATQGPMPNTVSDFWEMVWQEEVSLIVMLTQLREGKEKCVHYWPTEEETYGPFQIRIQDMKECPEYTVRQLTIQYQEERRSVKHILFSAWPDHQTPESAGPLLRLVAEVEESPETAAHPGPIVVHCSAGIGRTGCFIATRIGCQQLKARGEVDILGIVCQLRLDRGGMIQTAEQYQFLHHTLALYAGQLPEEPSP

[22] = molecular target: Dual specificity protein phosphatase 6 (Rattus norvegicus, UniProt Q64346); type: functional;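 also: confirmatory in vitro dose-response testing of MKP-3 inhibition; recombinant His-tagged MKP-3 made in E. coli BL21 with OMFP substrate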
HEK293 [23] = assay: cells; type: functional, cell-based; details: Homo sapiens
[24] = decrease of insulin promoter-GFP reporter – imaging, high-content screening, mouse beta cells (AID 1628); type: functional; details: MIN6
HEK293 [25] = assay: NOD2 signaling inhibitors in MDP-stimulated cells, cell-based, uHTS, luminescence (AID 2001); type: functional; details: Homo sapiens
[26] = NIH3T3 cell viability loss – ATP luminescence, mouse fibroblasts, counter-screen, dose response (AID 2010); type: functional, cell-based;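 also: cells exposed to compound for about 90 hours before reading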
INS1 = assay: INS-1E survival protection against cytokine death – cell-based, luminescence, retest, dose response (AID 449756); type: functional; details: Rattus norvegicus;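 also: cell death triggered by IL-1 beta plus TNF-alpha plus IFN-gamma mixture; protective hits raise ATP signal compared with cytokine alone wells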
HEK293 [27] = assay: cells; type: functional, cell-based; details: Homo sapiens; remark: listed apart in the source
[28] = MIN6 cell viability loss – mouse insulinoma, cytotoxicity control, dose response (AID 2122); type: functional;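 also: confirmatory high-throughput counterscreen run to flag cytotoxic compounds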
[29] = Trypanosoma cruzi growth suppression in host cells – NIH3T3 host cells, beta-gal luminescence, confirmation (AID 2044); type: functional, cell-based;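 also: intracellular parasites grown in NIH/3T3 mouse fibroblasts as host cells; luminescent beta-galactosidase reporter signal from transgenic T. cruzi replicating inside host cells; inhibitors lower the luminescence signal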
HEK293 [30] = assay: inhibition of NOD1-driven NF-kB reporter – cell-based, luminescence, uHTS, primary screen (AID 1578); type: functional; details: Homo sapiens

T2 sequence (Q9HC29 whole entry, the tested form may be a part): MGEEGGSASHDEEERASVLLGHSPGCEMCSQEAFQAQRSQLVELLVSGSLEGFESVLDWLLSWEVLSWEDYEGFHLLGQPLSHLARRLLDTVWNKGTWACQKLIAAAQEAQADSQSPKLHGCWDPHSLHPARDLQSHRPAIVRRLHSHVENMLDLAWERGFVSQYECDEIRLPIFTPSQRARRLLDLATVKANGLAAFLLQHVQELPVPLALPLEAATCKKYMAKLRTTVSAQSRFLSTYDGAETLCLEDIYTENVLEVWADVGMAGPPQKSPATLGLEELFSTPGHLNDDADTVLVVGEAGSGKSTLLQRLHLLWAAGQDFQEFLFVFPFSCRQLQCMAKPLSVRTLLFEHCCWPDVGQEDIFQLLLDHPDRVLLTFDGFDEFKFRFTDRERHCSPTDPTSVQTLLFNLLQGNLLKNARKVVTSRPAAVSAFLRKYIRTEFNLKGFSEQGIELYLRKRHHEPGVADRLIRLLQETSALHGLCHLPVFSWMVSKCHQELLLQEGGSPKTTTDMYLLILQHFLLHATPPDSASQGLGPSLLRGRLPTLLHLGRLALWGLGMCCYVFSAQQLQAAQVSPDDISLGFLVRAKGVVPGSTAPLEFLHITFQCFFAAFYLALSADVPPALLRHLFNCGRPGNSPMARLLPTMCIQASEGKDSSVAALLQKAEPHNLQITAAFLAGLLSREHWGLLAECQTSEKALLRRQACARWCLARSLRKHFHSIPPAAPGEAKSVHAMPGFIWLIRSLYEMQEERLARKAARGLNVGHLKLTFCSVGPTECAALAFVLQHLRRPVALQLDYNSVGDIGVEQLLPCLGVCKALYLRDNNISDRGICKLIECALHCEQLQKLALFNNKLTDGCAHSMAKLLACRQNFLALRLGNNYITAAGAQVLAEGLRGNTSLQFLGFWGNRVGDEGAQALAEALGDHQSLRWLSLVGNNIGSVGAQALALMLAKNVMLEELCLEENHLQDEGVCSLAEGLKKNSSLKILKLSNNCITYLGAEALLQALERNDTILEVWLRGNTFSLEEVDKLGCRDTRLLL
Chain of SUMO E1/E2 (Q9UBE0 whole entry): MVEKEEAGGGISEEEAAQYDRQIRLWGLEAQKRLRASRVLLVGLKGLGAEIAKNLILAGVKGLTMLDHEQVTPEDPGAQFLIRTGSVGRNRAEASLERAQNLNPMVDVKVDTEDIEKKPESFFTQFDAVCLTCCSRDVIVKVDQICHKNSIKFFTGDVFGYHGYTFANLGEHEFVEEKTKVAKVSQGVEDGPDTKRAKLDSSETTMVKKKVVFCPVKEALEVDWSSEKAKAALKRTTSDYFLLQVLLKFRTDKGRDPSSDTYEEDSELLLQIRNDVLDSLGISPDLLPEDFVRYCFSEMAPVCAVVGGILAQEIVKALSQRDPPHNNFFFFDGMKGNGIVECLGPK
Chain of SUMO E1/E2 (Q9UBT2 whole entry): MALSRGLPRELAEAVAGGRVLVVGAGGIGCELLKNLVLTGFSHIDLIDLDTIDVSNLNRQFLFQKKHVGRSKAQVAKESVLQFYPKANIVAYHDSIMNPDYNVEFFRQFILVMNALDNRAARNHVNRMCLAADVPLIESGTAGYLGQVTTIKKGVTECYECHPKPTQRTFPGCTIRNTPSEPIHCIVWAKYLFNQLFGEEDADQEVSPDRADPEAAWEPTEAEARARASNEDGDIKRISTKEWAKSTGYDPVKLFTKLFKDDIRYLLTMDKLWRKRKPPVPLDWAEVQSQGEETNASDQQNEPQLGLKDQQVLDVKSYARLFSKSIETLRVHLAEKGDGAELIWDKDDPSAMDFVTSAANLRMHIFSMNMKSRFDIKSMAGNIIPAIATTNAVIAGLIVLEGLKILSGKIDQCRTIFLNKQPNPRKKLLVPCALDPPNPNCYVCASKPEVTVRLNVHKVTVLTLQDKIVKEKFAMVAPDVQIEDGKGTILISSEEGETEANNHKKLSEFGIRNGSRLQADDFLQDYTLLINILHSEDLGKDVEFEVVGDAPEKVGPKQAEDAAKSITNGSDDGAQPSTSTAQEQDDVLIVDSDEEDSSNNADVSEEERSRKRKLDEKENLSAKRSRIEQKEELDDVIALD
Chain of SUMO E1/E2 (P63279 whole entry): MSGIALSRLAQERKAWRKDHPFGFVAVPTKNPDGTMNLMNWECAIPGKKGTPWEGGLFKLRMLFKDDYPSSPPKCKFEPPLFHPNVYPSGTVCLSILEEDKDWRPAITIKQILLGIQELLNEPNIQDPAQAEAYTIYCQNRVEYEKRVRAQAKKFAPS
Chain of Sphingosine 1-phosphate receptor 2 (O95136 whole entry): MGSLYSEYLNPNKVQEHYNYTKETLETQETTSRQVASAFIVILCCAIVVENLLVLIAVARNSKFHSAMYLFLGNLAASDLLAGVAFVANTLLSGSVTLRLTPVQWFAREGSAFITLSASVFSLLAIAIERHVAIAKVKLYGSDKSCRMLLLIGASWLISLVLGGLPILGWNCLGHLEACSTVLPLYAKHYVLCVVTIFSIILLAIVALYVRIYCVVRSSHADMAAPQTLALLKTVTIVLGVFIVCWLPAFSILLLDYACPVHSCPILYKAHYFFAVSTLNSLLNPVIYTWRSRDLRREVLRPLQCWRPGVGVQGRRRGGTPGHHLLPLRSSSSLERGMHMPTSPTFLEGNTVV
Chain of G-protein coupled receptor 55 (Q9Y2T6 whole entry): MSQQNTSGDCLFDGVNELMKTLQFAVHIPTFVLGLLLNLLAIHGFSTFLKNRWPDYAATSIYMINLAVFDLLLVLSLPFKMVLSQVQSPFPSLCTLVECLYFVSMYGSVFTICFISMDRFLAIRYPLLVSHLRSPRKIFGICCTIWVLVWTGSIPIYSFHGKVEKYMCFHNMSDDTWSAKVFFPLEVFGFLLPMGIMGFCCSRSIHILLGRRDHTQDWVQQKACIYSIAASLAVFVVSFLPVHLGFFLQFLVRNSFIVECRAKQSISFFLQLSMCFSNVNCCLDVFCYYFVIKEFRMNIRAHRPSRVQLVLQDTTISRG
Chain of Sphingosine 1-phosphate receptor 1 (P21453 whole entry): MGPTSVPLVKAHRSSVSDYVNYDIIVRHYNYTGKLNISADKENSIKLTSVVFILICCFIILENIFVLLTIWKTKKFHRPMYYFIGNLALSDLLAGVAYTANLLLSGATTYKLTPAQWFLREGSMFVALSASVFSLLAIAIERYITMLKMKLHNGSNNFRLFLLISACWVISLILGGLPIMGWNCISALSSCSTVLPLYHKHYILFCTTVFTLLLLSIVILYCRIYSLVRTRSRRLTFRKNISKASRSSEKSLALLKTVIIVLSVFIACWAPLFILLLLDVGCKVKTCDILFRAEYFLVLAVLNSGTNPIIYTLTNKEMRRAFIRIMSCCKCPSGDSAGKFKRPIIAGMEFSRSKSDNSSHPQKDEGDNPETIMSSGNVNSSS
Chain of Tumor necrosis factor (P01375 whole entry): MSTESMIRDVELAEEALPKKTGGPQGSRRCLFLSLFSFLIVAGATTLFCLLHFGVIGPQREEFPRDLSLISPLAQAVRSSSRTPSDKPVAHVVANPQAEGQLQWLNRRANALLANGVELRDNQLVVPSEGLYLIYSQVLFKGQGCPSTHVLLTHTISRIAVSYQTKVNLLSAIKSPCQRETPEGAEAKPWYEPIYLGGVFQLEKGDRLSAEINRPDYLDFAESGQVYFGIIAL
Chain of Sphingosine 1-phosphate receptor 5 (Q9H228 whole entry): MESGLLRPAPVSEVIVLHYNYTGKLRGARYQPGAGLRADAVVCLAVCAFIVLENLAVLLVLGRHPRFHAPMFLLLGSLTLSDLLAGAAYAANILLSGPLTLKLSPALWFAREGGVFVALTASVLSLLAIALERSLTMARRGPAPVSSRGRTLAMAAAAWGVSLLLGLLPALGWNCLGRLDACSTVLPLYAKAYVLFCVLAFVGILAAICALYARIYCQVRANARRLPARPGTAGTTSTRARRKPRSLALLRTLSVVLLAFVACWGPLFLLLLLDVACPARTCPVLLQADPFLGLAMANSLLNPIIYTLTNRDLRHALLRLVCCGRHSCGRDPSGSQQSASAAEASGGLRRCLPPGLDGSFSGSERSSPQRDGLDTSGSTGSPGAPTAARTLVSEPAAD
Chain of Sphingosine 1-phosphate receptor 3 (Q99500 whole entry): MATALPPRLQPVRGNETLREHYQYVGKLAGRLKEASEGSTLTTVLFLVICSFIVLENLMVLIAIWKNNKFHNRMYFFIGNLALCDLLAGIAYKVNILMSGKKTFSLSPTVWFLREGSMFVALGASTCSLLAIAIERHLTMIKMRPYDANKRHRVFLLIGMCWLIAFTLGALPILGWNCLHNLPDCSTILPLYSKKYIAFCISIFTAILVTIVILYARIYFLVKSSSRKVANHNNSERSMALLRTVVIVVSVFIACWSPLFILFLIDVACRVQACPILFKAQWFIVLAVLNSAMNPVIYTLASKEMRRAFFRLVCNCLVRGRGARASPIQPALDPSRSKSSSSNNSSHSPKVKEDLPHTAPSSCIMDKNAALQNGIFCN
Chain of Dual specificity protein phosphatase 6 (Q64346 whole entry): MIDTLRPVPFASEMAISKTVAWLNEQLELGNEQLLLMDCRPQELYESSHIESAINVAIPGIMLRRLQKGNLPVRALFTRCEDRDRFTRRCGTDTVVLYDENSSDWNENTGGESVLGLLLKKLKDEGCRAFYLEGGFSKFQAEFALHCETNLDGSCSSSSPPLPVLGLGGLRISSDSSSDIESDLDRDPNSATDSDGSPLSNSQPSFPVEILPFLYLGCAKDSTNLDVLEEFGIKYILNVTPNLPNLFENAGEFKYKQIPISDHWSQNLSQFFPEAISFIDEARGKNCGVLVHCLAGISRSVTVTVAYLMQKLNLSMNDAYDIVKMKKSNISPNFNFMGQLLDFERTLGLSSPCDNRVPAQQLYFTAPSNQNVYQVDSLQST

**Q.** For `O=C(Nc1ccc2nc(SCc3ccc(Cl)c(Cl)c3)sc2c1)c1ccccc1Br`, which IC50 [1] is on record?
**A.** The IC50 was > 32 µM (inactive).

**Q.** For `Cc1ccc2ccccc2c1NC(=O)c1ccc(-c2cc(Cl)ccc2Cl)o1`, which IC50 [2] is on record?
**A.** Its IC50 is > 25 µM (inactive).

**Q.** And the IC50 [3]?
**A.** The IC50 was > 25 µM (inactive).

**Q.** What about the IC50 [4] of the same molecule?
**A.** The IC50 was > 25 µM (inactive).

**Q.** What about the IC50 [5] of the same molecule?
**A.** The IC50 was > 25 µM (inactive).

**Q.** What does the source list for `COc1ccccc1/C=C/C(=O)OCCCN(C)C`?
**A.** EC50 [6]: 2.52 µM (active); EC50 [7]: 2.52 µM (active); EC50 [8]: > 195 µM (not active)

**Q.** Which IC50 (SUMO E1/E2) does the source give for `O=C1c2oc3ccccc3c(=O)c2C(c2ccc(O)cc2)N1c1nccs1` (stereo unspecified) here?
**A.** Its IC50 is 28.7 µM (active).

**Q.** Which results are given for `C/C(Cl)=C\Cn1c(NCCc2ccccc2)nc2c1c(=O)n(C)c(=O)n2C`?
**A.** IC50 (Interleukin-8 [9]): > 25 µM (inactive); IC50 (Tumor necrosis factor): 5.66 µM (active); AC50 [10]: 0.283 µM (active); IC50 [11]: 3.05 µM (active); IC50 [12]: > 25 µM (inactive); IC50 [13]: 2.61 µM (active); IC50 (HEK293 [14]): > 20 µM (inactive); AC50 [15]: 59.4 µM (active); IC50 [16]: 2.5 µM (active); AC50 [17]: 0.493 µM (active); IC50 (HEK293 [18]): > 20 µM (inactive); IC50 [19]: 4.13 µM (active); IC50 (Interleukin-8 [20]): > 25 µM (inactive)

**Q.** Which IC50 [21] does the source give for `CCN(CC)C(=O)c1cn(CCOc2ccccc2)c2ccccc12` here?
**A.** Its IC50 is 1.38 µM (active).

**Q.** What about the IC50 [22] of the same molecule?
**A.** Its IC50 is > 100 µM (inactive).

**Q.** For `COc1ccc(CC2(CO)CCN(CC3=Cc4cc(Cl)ccc4OC3)CC2)cc1`, which AC50 [10] is on record?
**A.** The AC50 was 1.33 µM (active).

**Q.** And the IC50 (HEK293 [23])?
**A.** The IC50 was 3.77 µM (active).

**Q.** What about the IC50 [24] of the same molecule?
**A.** Its IC50 is 1.79 µM (active).

**Q.** And the IC50 (HEK293 [25])?
**A.** The IC50 was 4.31 µM (active).

**Q.** And the EC50 [26]?
**A.** Its EC50 is > 60 µM (inconclusive).

**Q.** And the AC50 (INS1)?
**A.** The AC50 was 3.28 µM (active).

**Q.** What about the AC50 [15] of the same molecule?
**A.** The AC50 was 7.73 µM (active).

**Q.** And the IC50 (HEK293 [27])?
**A.** Its IC50 is 8.64 µM (active).

**Q.** And the IC50 [28]?
**A.** Its IC50 is 1.28 µM (active).

**Q.** What about the EC50 [29] of the same molecule?
**A.** The EC50 was 1.68 µM (active).

**Q.** What about the AC50 [17] of the same molecule?
**A.** The AC50 was 7.74 µM (active).

**Q.** And the EC50 (HEK293 [30])?
**A.** Its EC50 is 5.44 µM (active).
